Test results: EP0751947B1, “GLUCOSIDIC DERIVATIVES OF N-ACYL ALKYLAMINES EXERTING NEUROPROTECTIVE, NEUROTROPHIC AND ANTI-INFLAMMATORY ACTION, USEFUL IN ACUTE AND CHRONIC DISORDERS OF THE CENTRAL NERVOUS SYSTEM CONNECTED WITH EXCITOTOXICITY” (LIFEGROUP S.p.A., priority 1994, dated 1995)

Columns and labels:
granule cells = assay: neuroprotective effect against Excitatory Amino Acids (L-glutamic acid)-induced neuronal death in vitro, cell survival by MTT; format: cell-based, mouse; settings: for survived cells (%): A: Glu 500 µM, 5 min, incubated 24 hrs; for cytoprotection against Glu neurotoxicity: result in words, Glu 500 µM for 5 min, Table 5; for Survived Cells: co-treatment
Protocol: The compounds being evaluated, referred to as No. 1, 2, 3, 4, 5, 9 and 10 (with reference to the molecules whose syntheses have been described by way of example), Diltiazem, MK 801 and monosialoganglioside GM1, were solubilized in Locke's solution and added to the culture mediums at the desired concentrations according to different treatment schedule indicated in the Tables, with a view to checking: • dose-effect relationship; • time-effect relationship vs. incubation time (start and duration) and exposure to neurotoxin.
Granule cell cultures were prepared from post natal day 8-9 mouse Balb-6 cerebellum. The cells were suspended in EBM + 2mM L-glutamine, 100 U/ml penicillin, 50 µg/l gentamicin, 25 mM KCl and 10% fetal calf serum, plated on polylysine substrate, cultured for 8-10 days, and exposed to: i) L-glutamic acid (100 µM) at room temperature for 30-40 min. ii) L-glutamic acid (500 µM) at room temperature for 5 min.
The compounds being evaluated were incubated at different times (2 hrs before and at the same time as exposure) or for different times ranging from 5 to 60 minutes after exposure to L-glutamic acid. The cultures were then brought back to the original medium and the number of survived cells was assessed by colorimetric method (MTT) 24 hours after excitotoxic stimulation.

RBL-2H3 cells = assay: [3H]serotonin release assay in DNP-HSA stimulated RBL-2H3 cells; format: cell-based, Rat; settings: co-treatment with DNP-HSA, 15 min; 100 µM or 60 µM (not assigned per compound)
Protocol: The compounds under evaluation as per Ex. 1, 3, 4, and 9 were dissolved in DMSO 0.2%, while the compound of Ex. 6 was dissolved in DMSO 1%, and they were added at the desired concentration of 100 µM or 60 µM.
Rat basophil leukemia cells of the secreting subline 2H3 were grown in stationary cultures at 37°C in Eagle's minimal essential medium supplemented to contain 2mM L-glutamine, 100 IU/ml penicillin and 20% (v/v) heat-inactivated fetal calf serum (FCS). Cells were passed twice a week.
A mouse monoclonal IgE which is specific for dinitrophenol (DNP) haptens (clone SPE-7; Sigma) was used. Dinitrophenylated human serum albumin (DNP-HSA) was employed as the triggering agent in these experiments. The level of conjunction was 30-40 moles of DNP per mole of albumin (Sigma). […] The culture supernatants were then collected in Eppendorf tubes, centrifuged (4 min, 3000 rpm) and 50 µl aliquots counted by standard liquid scintillation techniques. The cellular contents of each well were solubilized with 100 µl of 1% Triton X-100 in PBS, and a 50 µl aliquot counted as above. The percent of [3H]serotonin release was calculated.
Background (spontaneous) release was normally < 5 % of the total radioactivity incorporated, and was always substracted from the stimulated release value ("net" release).

solubility in water = settings: for solubility: hot water
[1] = solubility in organic solvents; settings: ethanol and dmso, organic solvent or mixture
cerebellar granule cells = assay: protection against apoptotic neuronal cell death induced by low potassium (KCl 5mM), MTT assay; format: cell-based, Mouse; settings: compound 100 µM in DMSO 0.2%, MTT 24 hrs later
Protocol: The compounds as in Ex.3, 5, 8, 9 and 11 and GM1 were solubilized in DMSO 0.2% and added to the cells at the desired concentration.
Mouse (Balb 6, 8-9 post-natal day) cerebellar granule cells were plated in basal Eagle medium (BEM) + 10% fetal calf serum + 25 […] + 2 mM glutamine + 100 µg/ml gentamicine dishes and coated with poly/L lisine. Culture medium was replaced with serum-free medium 6-9 days after plating. […] Neuronal cell survival was measured 24 hrs later by MTT assay.

physchem [2] = assay: physchem
physchem [3] = settings: hot water
[4] = compound 10 µM added 0 min after Glu removal

Molecule: COc1ccc([C@@H]2Sc3ccccc3N(CCN(C)C)C(=O)[C@@H]2OC(C)=O)cc1 [Diltiazem, reference compound]
- survived cells (%) (granule cells; [4]): 35%
- cytoprotection against Glu neurotoxicity (granule cells): does not show any significant action

Molecule: CCCCCCCCCCCCCCCC(=O)NCCO[C@@H]1O[C@H](CO)[C@@H](O)[C@H](O)[C@H]1O [Example 1, 2-O-(β-D-glucopyranosyl)-N-palmitoylaminoethanol]
- % of inhibition (serotonin net release inhibition) (RBL-2H3 cells): 57%
- survived cells (%) pre. (granule cells; Glu 100 µM, 40 min, room temperature, compound 100 µM added 2 hrs before and then removed, survival after 24 hrs): 44%
- survived cells (%) co. (granule cells; Glu 100 µM, 40 min, room temperature, compound 100 µM added at the same time, survival after 24 hrs): 57%
- survived cells (%) pre.+ co. (granule cells; Glu 100 µM, 40 min, room temperature, compound 100 µM, 2 hrs before and at the same time, survival after 24 hrs): 35%
- Survived Cells (granule cells; Glu 100 µM, room temperature, 40 min, compound 10 µM): 22%
- Survived Cells (granule cells; Glu 100 µM, room temperature, 40 min, compound 25 µM): 35%
- Survived Cells (granule cells; Glu 100 µM, room temperature, 40 min, compound 50 µM): 48%
- Survived Cells (granule cells; Glu 100 µM, room temperature, 40 min, compound 100 µM): 67%
- Survived Cells (granule cells; Glu 100 µM, room temperature, 40 min, compound 200 µM): 90%
- solubility in water (solubility in water; at room temperature, result in words): poorly soluble
- solubility (solubility in water): > 10000 µg/mL
- solubility [1]: > 10000 µg/mL

Molecule: O=C(NCCO[C@@H]1O[C@H](CO)[C@H](O)[C@H](O)[C@H]1O)c1ccccc1 [Example 6, 2-0-(β-D-galactopyranosyl)-N-benzoyl-aminoethanol]
- % of inhibition (serotonin net release inhibition) (RBL-2H3 cells): 54%
- solubility (solubility in water): > 10000 µg/mL
- solubility [1]: > 10000 µg/mL

Molecule: CCCCCCCCCC(=O)NCCO[C@@H]1O[C@H](CO)[C@@H](O)[C@H](O)[C@H]1O [Example 8, 2-0-(β-D-glucopyranosyl)-N-decanoyl-aminoethanol]
- Cell survival (%) (cerebellar granule cells): 51%
- solubility (solubility in water): > 10000 µg/mL
- solubility [1]: > 10000 µg/mL

Molecule: CCCCCCCCCCCCCCCCCC(=O)NCCO[C@@H]1O[C@H](CO)[C@@H](O)[C@H](O)[C@H]1O [Example 11, 2-0-(β-D-glucopyranosyl)-N-stearoyl-aminoethanol]
- Cell survival (%) (cerebellar granule cells): 51%
- solubility (physchem [2]; dmso and hot isopropyl alcohol): > 10000 µg/mL

Molecule: O=C(CCCCCCCC(=O)NCCO[C@@H]1O[C@H](CO)[C@@H](O)[C@H](O)[C@H]1O)NCCO[C@@H]1O[C@H](CO)[C@@H](O)[C@H](O)[C@H]1O [Example 12, N,N'-bis-[2-0-(β-D-glucopyranosyl)-ethyl]-nonanediamide]
- solubility (physchem [3]): > 10000 µg/mL
- solubility (physchem [2]; dmso): > 10000 µg/mL

Molecule: CCCCC/C=C\C/C=C\C/C=C\C/C=C\CCCC(=O)NCCO[C@@H]1O[C@H](CO)[C@@H](O)[C@H](O)[C@H]1O [Example 13, 2-0-(β-D-glucopyranosyl)-N-arachidonoyl-aminoethanol]
- water solubility (solubility in water; result in words): poorly soluble
- solubility [1]: > 10000 µg/mL

Molecule: CCCCCCCCCCCC(=O)NCCO[C@H]1O[C@H](CO)[C@@H](O)[C@H](O)[C@H]1O [Example 14, 2-0-(α-D-glucopyranosyl)-N-dodecanoyl-aminoethanol]
- solubility (physchem [3]): > 10000 µg/mL
- solubility (physchem [2]; ethanol and dmso): > 10000 µg/mL

Molecule: C[C@]12N[C@H](Cc3ccccc31)c1ccccc12 [MK 801, reference compound]
- survived cells (%) (granule cells; [4]): 66%
- survived cells (%) (granule cells; compound 10 µM added 15 min after Glu removal): 32%
- survived cells (%) (granule cells; compound 10 µM added 30 min after Glu removal): 30%
- cytoprotection against Glu neurotoxicity (granule cells): protective, at least partially, only after co-treatment

Molecule: monosialoganglioside GM1 [reference compound]
- Cell survival (%) (cerebellar granule cells): 78%
- survived cells (%) (granule cells; compound 100 µM added 0 min after Glu removal): 31%
- cytoprotection against Glu neurotoxicity (granule cells): does not show any significant action
